Values of other authors in patent publication US7879357B2 (priority 2003, dated 2011).

Settings: skin of the retro-auricular region and the scrotum

uptake rate through the skin compared to the lower arm: up to 40 ×
SMILES: C[C@]12CCC(=O)C=C1CC[C@@H]1[C@@H]2[C@@H](O)C[C@@]2(C)[C@H]1CC[C@]2(O)C(=O)CO [hydrocortisone]
